Target: human GLP-1R (Homo sapiens, UniProt P43220)
Experiment: GLP-1R Cell Assay 2: CHO-K1_hGLP-1Rlow_clone10 cells, LANCE Ultra cAMP TR-FRET assay
Assay type: cell-based
Design: expressed in transfected cells
Details: Table 3, percent activation relative to control GLP-1 peptide agonist
Description: Stable cell lines expressing high and low GLP-1R surface expression were generated in CHO-K1 cells transfected (Fugene 6) with a puromycin selectable DNA plasmid encoding human GLP-1R receptor (accession number: NM_002062.5) under control of an EF1A promoter. Transfected cells were seeded into 24-well plates (9,000 cells/well) containing complete medium and incubated in a humidified incubator at 37° C. with 5% carbon dioxide. After overnight incubation, medium was replaced with complete medium supplemented with puromycin (6 μg/mL) and refreshed every 2-3 days to select for stably transfected cells. Individual pools of selected cells were expanded prior to analysis for responsiveness to GLP-1 control peptide using a TR-FRET assay to detect cAMP (LANCE Ultra cAMP Assay, Perkin Elmer). Briefly, cells were collected in Versene solution, plated in 384-well plates (1,000 cells/well) and combined with serially diluted GLP-1R control peptide (10 nL) using an acoustic dispenser (ECHO). Plates were incubated for 30 minutes at 25° C. prior to the addition of EU-cAMP tracer (5 μL) and Ulight-anti-cAMP (5 μL) reagents to each well, followed by 15 minutes incubation at 25° C. TR-FRET signal was detected using an EnVision Multimode Plate Reader (excitation=320 nm; emission=615 and 655 nm). Dose-response curves were used to generate EC50 values as a measure of responsiveness to the GLP-1R control peptide. Selected cell lines were monitored for responsiveness over multiple passages to ensure stability. […] Briefly, GLP-1R expression was analyzed by flow cytometry using a fluorescein-labeled Exendin-4 peptide fluorescent probe (FLEX). Cells were harvested in Versene solution and washed 3-times with PBS+0.5% BSA before incubation with FLEX reagent (10 μM) for 2 hours at room temperature. After incubation, cells were washed 3-times in PBS+0.5% BSA before final resuspension in PBS prior to analysis by flow cytometry to measure FLEX mean fluorescence intensity (MFI) as a measure of GLP-1R expression on the cell surface.
For compound testing in the CHO-K1_hGLP-1Rlow_clonel0 cell lines, cells were seeded in 384-well plates (1,000 cells/well). Test compounds were serially diluted in DMSO (10-point, 3-fold dilution), added to wells using an ECHO dispenser (10 nL/well) and plates were centrifuged for 1 min and agitated for 2 min at room temperature prior to 30-minute incubation at 25° C. After incubation, Eu-cAMP (5 p,L) and Ulight-anti-cAMP (5 μL) reagents were added to each well, followed by centrifugation for 1 minute, agitation for 2 minutes at room temperature, and final incubation of the plates at 25° C. for 15 minutes. Plates were read using an EnVision microplate reader (excitation=320 nm; emission=615 and 655 nm). Dose-response curves were generated from duplicate wells based on percent activation calculated relative to a control GLP-1 peptide agonist that was run in parallel. EC50 values were determined by fitting percent activation as a function of compound concentration using the Hill equation (XLfit).

Sequence of human GLP-1R (P43220 24-463): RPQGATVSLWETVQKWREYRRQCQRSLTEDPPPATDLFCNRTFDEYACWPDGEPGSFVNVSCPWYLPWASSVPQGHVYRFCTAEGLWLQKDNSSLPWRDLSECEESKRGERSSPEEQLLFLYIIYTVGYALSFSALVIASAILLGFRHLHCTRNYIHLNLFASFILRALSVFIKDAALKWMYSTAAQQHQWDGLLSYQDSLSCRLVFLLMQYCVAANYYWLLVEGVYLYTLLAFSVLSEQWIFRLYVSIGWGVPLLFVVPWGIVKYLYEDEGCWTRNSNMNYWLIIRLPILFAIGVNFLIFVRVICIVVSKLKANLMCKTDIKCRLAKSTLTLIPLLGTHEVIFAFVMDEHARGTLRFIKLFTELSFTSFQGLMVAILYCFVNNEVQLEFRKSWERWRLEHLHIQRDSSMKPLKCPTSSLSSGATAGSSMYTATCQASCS

Row | Compound | EC50
1 | N#Cc1cc(F)c2c(c1)CCN(c1cccc(C3CCN(Cc4nc5ccc(C(=O)O)cc5n4Cc4ncco4)CC3)n1)C2 [Compound 172, 2-((4-(6-(6-cyano-8-fluoro-3,4-dihydroisoquinolin-2(1H)-yl)pyridin-2-yl)piperidin-1-yl)methyl)-1-(oxazol-2-ylmethyl)-1H-benzo[d]imidazole-6-carboxylic acid] | 119 nM
2 | CCn1cncc1Cn1c(CN2CC[C@]3(c4nccc(N5CCc6cc(C#N)cc(F)c6C5)n4)C[C@@H]3C2)nc2ccc(C(=O)O)cc21 (single isomer, unassigned) [Compound 186-P2] | > 10000 nM
3 | O=C(O)c1ccc2nc(CN3CCC(c4cccc(OCc5nc(C(F)(F)F)cs5)n4)CC3)n(C[C@@H]3CCO3)c2c1 [Compound 179, (S)-1-(oxetan-2-ylmethyl)-2-((4-(6-((4-(trifluoromethyl)thiazol-2-yl)methoxy)pyridin-2-yl)piperidin-1-yl)methyl)-1H-benzo[d]imidazole-6-carboxylic acid] | 36.6 nM
4 | O=C(O)c1ccc2nc(CN3CCC(c4cccc(OCc5coc6c(C(F)(F)F)cc(Br)cc56)n4)CC3)n(C[C@@H]3CCO3)c2c1 [Compound 182, (S)-2-((4-(6-((5-bromo-7-(trifluoromethyl)benzofuran-3-yl)methoxy)pyridin-2-yl)piperidin-1-yl)methyl)-1-(oxetan-2-ylmethyl)-1H-benzo[d]imidazole-6-carboxylic acid] | 33.9 nM
5 | CCn1cccc1Cn1c(CN2CCC(c3cccc(OCc4nc5c(F)cc(C#N)cc5s4)n3)CC2)nc2ccc(C(=O)O)cc21 [Compound 180, 2-((4-(6-((6-cyano-4-fluorobenzo[d]thiazol-2-yl)methoxy)pyridin-2-yl)piperidin-1-yl)methyl)-1-((1-ethyl-1H-pyrrol-2-yl)methyl)-1H-benzo[d]imidazole-6-carboxylic acid] | 215 nM
6 | CCn1cncc1Cn1c(CN2CC[C@@]3(c4nccc(OCc5ccc(C#N)cc5F)n4)C[C@H]3C2)nc2ccc(C(=O)O)cc21 [Compound 185-P1, 2-(((1R,6S)-6-(4-((4-cyano-2-fluorobenzyl)oxy)pyrimidin-2-yl)-3-azabicyclo[4.1.0]heptan-3-yl)methyl)-1-((1-ethyl-1H-imidazol-5-yl)methyl)-1H-benzo[d]imidazole-6-carboxylic acid] | 1.69 nM
7 | CC1=NCC(Cn2c(CN3CCC(c4cccc(OCc5ccc(C#N)cc5F)n4)CC3)nc3ccc(C(=O)O)cc32)O1 (single isomer, unassigned) [Compound 176, 2-((4-(6-((4-cyano-2-fluorobenzyl)oxy)pyridin-2-yl)piperidin-1-yl)methyl)-1-((2-methyl-4,5-dihydrooxazol-5-yl)methyl)-1H-benzo[d]imidazole-6-carboxylic acid] | 1590 nM
8 | CCn1cncc1Cn1c(CN2CC[C@@]3(c4nccc(N5CCc6cc(C#N)cc(F)c6C5)n4)C[C@H]3C2)nc2ccc(C(=O)O)cc21 [Compound 186-P1] | 646 nM
9 | O=C(O)c1ccc2nc(CN3CCC(c4cccc(OCc5nc(C6CC6)cs5)n4)CC3)n(C[C@@H]3CCO3)c2c1 [Compound 181, (S)-2-((4-(6-((4-cyclopropylthiazol-2-yl)methoxy)pyridin-2-yl)piperidin-1-yl)methyl)-1-(oxetan-2-ylmethyl)-1H-benzo[d]imidazole-6-carboxylic acid] | 22.8 nM
10 | CCn1cncc1Cn1c(CN2CCC(c3cccnc3OCc3ccc(C#N)cc3F)CC2)nc2ccc(C(=O)O)cc21 [Compound 169, 2-((4-(2-((4-cyano-2-fluorobenzyl)oxy)pyridin-3-yl)piperidin-1-yl)methyl)-1-((1-ethyl-1H-imidazol-5-yl)methyl)-1H-benzo[d]imidazole-6-carboxylic acid] | 1.14 nM
11 | O=C(O)c1ccc2nc(CN3CCC(c4cccc(OCc5coc6c(C(F)(F)F)cccc56)n4)CC3)n(C[C@@H]3CCO3)c2c1 [Compound 175, (S)-1-(oxetan-2-ylmethyl)-2-((4-(6-((7-(trifluoromethyl)benzofuran-3-yl)methoxy)pyridin-2-yl)piperidin-1-yl)methyl)-1H-benzo[d]imidazole-6-carboxylic acid] | 14.5 nM
12 | CCn1cncc1Cn1c(CN2CCC(c3cccnc3OCc3ccc(C(N)=O)cc3F)CC2)nc2ccc(C(=O)O)cc21 [Compound 170, 2-((4-(2-((4-carbamoyl-2-fluorobenzyl)oxy)pyridin-3-yl)piperidin-1-yl)methyl)-1-((1-ethyl-1H-imidazol-5-yl)methyl)-1H-benzo[d]imdiazole-6-carboxylic acid] | 120 nM
13 | CCn1cncc1Cn1c(CN2CC[C@]3(c4nccc(OCc5ccc(C#N)cc5F)n4)C[C@@H]3C2)nc2ccc(C(=O)O)cc21 [Compound 185-P2, 2-(((1S,6R)-6-(4-((4-cyano-2-fluorobenzyl)oxy)pyrimidin-2-yl)-3-azabicyclo[4.1.0]heptan-3-yl)methyl)-1-((1-ethyl-1H-imidazol-5-yl)methyl)-1H-benzo[d]imidazole-6-carboxylic acid] | 18.1 nM
14 | N#Cc1cccc2c(COc3cccc(C4CCN(Cc5nc6ccc(C(=O)O)cc6n5C[C@@H]5CCO5)CC4)n3)csc12 [Compound 187, (S)-2-((4-(6-((7-cyanobenzo[b]thiophen-3-yl)methoxy)pyridin-2-yl)piperidin-1-yl)methyl)-1-(oxetan-2-ylmethyl)-1H-benzo[d]imidazole-6-carboxylic acid] | 13.2 nM
15 | O=C(O)c1ccc2nc(CN3CCC(c4cccc(Oc5ccccc5)n4)CC3)n(C[C@@H]3CCO3)c2c1 [Compound 183, (S)-1-(oxetan-2-ylmethyl)-2-((4-(6-phenoxypyridin-2-yl)piperidin-1-yl)methyl)-1H-benzo[d]imidazole-6-carboxylic acid] | > 10000 nM
16 | O=C(O)c1ccc2nc(CN3CCC(c4cccc(OCc5csc6c(C(F)(F)F)cccc56)n4)CC3)n(C[C@@H]3CCO3)c2c1 [Compound 174, (S)-1-(oxetan-2-ylmethyl)-2-((4-(6-((7-(trifluoromethyl)benzo[b]thiophen-3-yl)methoxy)pyridin-2-yl)piperidin-1-yl)methyl)-1H-benzo[d]imidazole-6-carboxylic acid] | 63.4 nM
17 | CCn1nncc1Cn1c(CN2CCC(c3cccc(OCc4nc5c(F)cc(C#N)cc5s4)n3)CC2)nc2ccc(C(=O)O)cc21 [Compound 178, 2-((4-(6-((6-cyano-4-fluorobenzo[d]thiazol-2-yl)methoxy)pyridin-2-yl)piperidin-1-yl)methyl)-1-((1-ethyl-1H-1,2,3-triazol-5-yl)methyl)-1H-benzo[d]imidazole-6-carboxylic acid] | 7.56 nM
18 | N#Cc1cccc2c(COc3cccc(C4CCN(Cc5nc6ccc(C(=O)O)cc6n5C[C@@H]5CCO5)CC4)n3)csc12 [Compound 173, (S)-2-((4-(6-((7-cyanobenzo[b]thiophen-3-yl)methoxy)pyridin-2-yl)piperidin-1-yl)methyl)-1-(oxetan-2-ylmethyl)-1H-benzo[d]imidazole-6-carboxylic acid] | 13.2 nM
19 | CCn1ccnc1Cn1c(CN2CCC(c3cccc(N4CCc5cc(C#N)cc(F)c5C4)n3)CC2)nc2ccc(C(=O)O)cc21 [Compound 171, 2-((4-(6-(6-cyano-8-fluoro-3,4-dihydroisoquinolin-2(1H)-yl)pyridin-2-yl)piperidin-1-yl)methyl)-1-((1-ethyl-1H-imidazol-2-yl)methyl)-1H-benzo[d]imidazole-6-carboxylic acid] | 1410 nM
20 | O=C(O)c1ccc2nc(CN3CCC(c4cccc(OCc5cc6cccc(C(F)(F)F)c6o5)n4)CC3)n(C[C@@H]3CCO3)c2c1 [Compound 177, (S)-1-(oxetan-2-ylmethyl)-2-((4-(6-((7-(trifluoromethyl)benzofuran-2-yl)methoxy)pyridin-2-yl)piperidin-1-yl)methyl)-1H-benzo[d]imidazole-6-carboxylic acid] | 6.73 nM

— patent US20220089578A1, “COMPOUNDS AS GLP-1R AGONISTS” (Terns Pharmaceuticals, Inc., priority 2020, published 2022)
